Laboratory results: patent US20170253601A1, “Substituted Pyrrolidine Compounds” (EPIZYME, INC., priority 2014, published 2017)

The molecules below were run against T1, SMYD2 (Homo sapiens, UniProt Q9NRG4) (assay: SMYD2 Biochemical Assay (3H-SAM, biotinylated peptide substrate, Flashplate)). Conditions: IC50 values are an average of n = 1 to n = 50; read-out: SMYD2 Biochem IC50 (μM)*.
T1 construct: Full length SMYD2 (NP 064582.2) was cloned; His6 (N, cleaved yes); FLAG (N); made in house; host or cells: Sf9 insect cells
T1 sequence (Q9NRG4 whole entry): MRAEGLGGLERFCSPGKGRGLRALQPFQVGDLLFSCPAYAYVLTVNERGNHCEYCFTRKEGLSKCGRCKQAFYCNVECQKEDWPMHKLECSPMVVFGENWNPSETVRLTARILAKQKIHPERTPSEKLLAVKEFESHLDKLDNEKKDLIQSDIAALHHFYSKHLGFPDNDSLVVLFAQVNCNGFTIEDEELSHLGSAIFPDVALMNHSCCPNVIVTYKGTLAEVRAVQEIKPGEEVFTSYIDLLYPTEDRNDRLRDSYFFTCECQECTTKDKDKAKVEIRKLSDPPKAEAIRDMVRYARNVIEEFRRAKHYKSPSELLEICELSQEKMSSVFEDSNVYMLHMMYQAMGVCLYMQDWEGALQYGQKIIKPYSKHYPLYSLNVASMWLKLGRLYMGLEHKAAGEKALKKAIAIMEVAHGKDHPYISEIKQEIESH
Outline: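 Methyltransferase activity tracked as 3H transfer from 10 nM 3H-SAM to 60 nM biotinylated peptide, counted after streptavidin Flashplate capture and normalised to DMSO and 1000 uM SAH controls. Enzyme: 1.5 nM full-length Sf9-expressed SMYD2, 30 min compound pre-incubation at room temperature, in Bicine pH 7.6 buffer with 2% DMSO; reactions quenched with 600 uM unlabelled SAM; IC50 from 3- or 4-parameter fit.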
With `CC(C)N1C[C@H](C)[C@H](NC(=O)c2cc(C#N)on2)C1` (racemic) [compound 341, (±)-cis-5-cyano-N-[4-methyl-1-(propan-2-yl)pyrrolidin-3-yl]-1,2-oxazole-3-carboxamide] the IC50 was 22.8 µM. Work on `CC(C)N1C[C@H](C)[C@H](NC(=O)c2cc(C3CNC3)on2)C1` (racemic) [compound 342, (±)-cis-5-(azetidin-3-yl)-N-[4-methyl-1-(propan-2-yl)pyrrolidin-3-yl]-1,2-oxazole-3-carboxamide] yielded an IC50 of over 50 µM. `CC(C)N1C[C@H](C)[C@H](NC(=O)c2cc(C3CN(C)C3)on2)C1` (racemic) [compound 343, (±)-cis-N-[4-methyl-1-(propan-2-yl)pyrrolidin-3-yl]-5-(1-methylazetidin-3-yl)-1,2-oxazole-3-carboxamide] gave an IC50 of over 50 µM. For `CC(C)N1C[C@H](C)[C@H](NC(=O)c2cc(CC(F)F)on2)C1` (racemic) [compound 345, (±)-cis-5-(2,2-difluoro-ethyl)-N-[4-methyl-1-(propan-2-yl)pyrrolidin-3-yl]-1,2-oxazole-3-carboxamide], the IC50 was 5.84 µM. Molecule `CC(C)N1C[C@H](C)[C@H](NC(=O)c2cc(C3(O)COC3)on2)C1` (racemic) [compound 346, (±)-cis-5-(3-hydroxyoxetan-3-yl)-N-[4-methyl-1-(propan-2-yl)pyrrolidin-3-yl]-1,2-oxazole-3-carboxamide] has an IC50 of over 50 µM. With `CC(C)N1C[C@H](C)[C@H](NC(=O)c2cc(C(F)(F)F)on2)C1` (racemic) [compound 348, (±)-cis-N-[4-methyl-1-(propan-2-yl)pyrrolidin-3-yl]-5-(trifluoromethyl)-1,2-oxazole-3-carboxamide] the IC50 was 6.68 µM. Work on `CCOC(=O)C(C)CN1C[C@@H](C)[C@H](NC(=O)c2cc(C3CC3)on2)C1` (relative stereo) [compound 128, trans-ethyl 3-[3-(5-cyclopropyl-1,2-oxazole-3-amido)-4-methylpyrrolidin-1-yl]-2-methylpropanoate] yielded an IC50 of over 50 µM. Molecule `CCOC(=O)C(C)CN1C[C@H](C)[C@H](NC(=O)c2cc(C3CC3)on2)C1` (relative stereo) [compound 186, cis-ethyl 3-[3-(5-cyclopropyl-1,2-oxazole-3-amido)-4-methylpyrrolidin-1-yl]-2-methylpropanoate] has an IC50 of 20.8 µM. `CC(Cc1ccc2c(c1)OCO2)CN1C[C@H](C)[C@H](NC(=O)c2cc(C3CC3)on2)C1` (relative stereo) [compound 323, cis-N-{1-[2-(2H-1,3-benzodioxol-5-ylmethyl)propyl]-4-methylpyrrolidin-3-yl}-5-cyclopropyl-1,2-oxazole-3-carboxamide] gave an IC50 of 9.31 µM. `CCC(c1ccccc1)N1C[C@H](C)[C@H](NC(=O)c2cc(C3CC3)on2)C1` (relative stereo) [compound 329, cis-5-cyclopropyl-N-[4-methyl-1-(1-phenyl-propyl)pyrrolidin-3-yl]-1,2-oxazole-3-carboxamide] was tested, and the IC50 was 1.15 µM. With `C[C@H]1CN(C(CO)c2ccccc2)C[C@H]1NC(=O)c1cc(C2CC2)on1` (relative stereo) [compound 330, cis-5-cyclopropyl-N-[1-(2-hydroxy-1-phenylethyl)-4-methyl-pyrrolidin-3-yl]-1,2-oxazole-3-carboxamide] the IC50 was 9.44 µM. Work on `CC(c1cc(C(=O)N[C@@H]2CN(C(C)C)C[C@@H]2C)no1)C(F)F` (relative stereo) [compound 344, cis-5-(1,1-difluoropropan-2-yl)-N-[4-methyl-1-(propan-2-yl)pyrrolidin-3-yl]-1,2-oxazole-3-carboxamide] yielded an IC50 of 10.2 µM. For `CCOC(=O)C1CC1CN1C[C@H](C)[C@H](NC(=O)c2cc(C3CC3)on2)C1` (stereo in doubt) [compound 176, cis-ethyl 2-{[3-(5-cyclopropyl-1,2-oxazole-3-amido)-4-methylpyrrolidin-1-yl]methyl}cyclopropane-1-carboxylate], the IC50 was 5.28 µM. Molecule `CC(C)c1cc(C(=O)N[C@H]2C[C@H](CNC(=O)c3ccccc3)N(C3CC3)C2)no1` (stereo in doubt) [compound 189, (±)-trans-N-[1-cyclopropyl-5-[(phenyl-formamido)methyl]pyrrolidin-3-yl]-5-(propan-2-yl)-1,2-oxazole-3-carboxamide] has an IC50 of over 50 µM. `CC(C)c1cc(C(=O)N[C@H]2C[C@H](CNC(=O)C3CCCCC3)N(C3CC3)C2)no1` (stereo in doubt) [compound 190, (±)-trans-N-[5-[(cyclohexyl-formamido)methyl]-1-cyclopropylpyrrolidin-3-yl]-5-(propan-2-yl)-1,2-oxazole-3-carboxamide] was tested, and the IC50 was over 50 µM. In the case of `CC(C)N1C[C@@H](NC(=O)c2cc(C3CC3)on2)C[C@@H]1COCC#CC1CCCCC1` (stereo in doubt) [compound 236, (±)-trans-N-[5-{[(3-cyclo-hexylprop-2-yn-1-yl)oxy]methyl}-1-(propan-2-yl)pyrrolidin-3-yl]-5-cyclopropyl-1,2-oxazole-3-carboxamide], the IC50 is reported as over 50 µM. `CC(C)N1C[C@H](NC(=O)c2cc(C3CC3)on2)C[C@@H]1COCC#Cc1ccccc1` (stereo in doubt) [compound 238, (±)-cis-5-cyclopropyl-N-[5-{[(3-phenylprop-2-yn-1-yl)oxy]methyl}-1-(propan-2-yl)pyrrolidin-3-yl]-1,2-oxazole-3-carboxamide] showed an IC50 of 39.7 µM. With `CC(C)N1C[C@@H](NC(=O)c2cc(C3CC3)on2)C[C@H]1COCC#Cc1ccccc1` (stereo in doubt) [compound 240, (±)-cis-5-cyclopropyl-N-[(5-{[(3-phenylprop-2-yn-1-yl)oxy]methyl}-1-(propan-2-yl)pyrrolidin-3-yl]-1,2-oxazole-3-carboxamide] the IC50 was over 50 µM. With `CC(C)c1cc(C(=O)N[C@@H]2C[C@@H](CNC(=O)c3ccccc3)N(C3CC3)C2)no1` (stereo in doubt) [compound 242, (±)-trans-N-[1-cyclo-propyl-5-[(phenyl-formamido)methyl]pyrrolidin-3-yl]-5-(propan-2-yl)-1,2-oxazole-3-carboxamide] the IC50 was over 50 µM. `CC(C)c1cc(C(=O)N[C@@H]2C[C@@H](CNC(=O)C3CCCCC3)N(C3CC3)C2)no1` (stereo in doubt) [compound 243, (±)-trans-N-[5-[(cyclo-hexylformamido)methyl]-1-cyclopropylpyrrolidin-3-yl]-5-(propan-2-yl)-1,2-oxazole-3-carboxamide] gave an IC50 of over 50 µM. For `CC(C)N1C[C@H](NC(=O)c2cc(C3CC3)on2)C[C@H]1COCC#CC1CCCCC1` (stereo in doubt) [compound 244, (±)-trans-N-[5-{[(3-cyclo-hexylprop-2-yn-1-yl)oxy]methyl}-1-(propan-2-yl)pyrrolidin-3-yl]-5-cyclopropyl-1,2-oxazole-3-carboxamide], the IC50 was over 50 µM. Work on `CC(N1C[C@H](C)[C@H](NC(=O)c2cc(C3CC3)on2)C1)C(F)(F)F` (stereo in doubt) [compound 285, trans-5-cyclopropyl-N-[4-methyl-1-(1,1,1-trifluoropropan-2-yl)pyrrolidin-3-yl]-1,2-oxazole-3-carboxamide] yielded an IC50 of over 50 µM. `C[C@H](c1ccccc1)N1C[C@@H](CO)[C@H](NC(=O)c2cc(C3CC3)on2)C1` [compound 119, 5-cyclopropyl-N-[(3S,4R)-4-(hydroxymethyl)-1-[(1R)-1-phenylethyl]pyrrolidin-3-yl]-1,2-oxazole-3-carboxamide] gave an IC50 of 38.2 µM. `O=C(N[C@@H]1CN(C2CC2)C[C@H]1CO)c1cc(C2CC2)on1` [compound 168, 5-cyclopropyl-N-[(3S,4R)-1-cyclopropyl-4-(hydroxymethyl)pyrrolidin-3-yl]-1,2-oxazole-3-carboxamide] showed an IC50 of 43.2 µM. For `C[C@@H]1CN(Cc2ccc3nonc3c2)C[C@H]1NC(=O)c1cc(C2CC2)on1` [compound 182, N-[(3S,4R)-1-(2,1,3-benzoxadiazol-5-ylmethyl)-4-methyl-pyrrolidin-3-yl]-5-cyclopropyl-1,2-oxazole-3-carboxamide], the IC50 was over 50 µM. `CC(C)N1C[C@@H](C)[C@@H](NC(=O)c2cc(C3CC3)on2)C1` [compound 234, 5-cyclopropyl-N-[(3R,4R)-4-methyl-1-(propan-2-yl)pyrrolidin-3-yl]-1,2-oxazole-3-carboxamide] gave an IC50 of 0.682 µM. In the case of `C[C@@H]1CN(C2CC2)C[C@@H]1NC(=O)c1cc(C2CC2)on1` [compound 235, 5-cyclopropyl-N-[(3R,4R)-1-cyclopropyl-4-methyl-pyrrolidin-3-yl]-1,2-oxazole-3-carboxamide], the IC50 is reported as 1.15 µM. For `CC(C)N1CC(CNC(=O)c2ccccc2)C(NC(=O)c2cc(C3CC3)on2)C1` (stereo not drawn) [compound 237, 5-cyclopropyl-N-{4-[(phenylformamido)methyl]-1-(propan-2-yl)pyrrolidin-3-yl}-1,2-oxazole-3-carboxamide], the IC50 was 10.5 µM. Work on `CC(C)N1C[C@@H](NC(=O)c2cc(C3CC3)on2)[C@](C)(O)C1` [compound 245, 5-cyclopropyl-N-[(3R,4R)-4-hydroxy-4-methyl-1-(propan-2-yl)pyrrolidin-3-yl]-1,2-oxazole-3-carboxamide] yielded an IC50 of 6.8 µM.

Same assay, conditions: Table 1; average of n = 1 to n = 50; read-out: SMYD2 Biochem IC50
`O=C(NC1CCN(C2CC2)C1)c1cc(C2CC2)on1` (stereo not drawn) [compound 36, 5-cyclopropyl-N-(1-cyclopropylpyrrolidin-3-yl)isoxazole-3-carboxamide] was tested, and the IC50 was 32.5 µM. `O=C(NC1CNCC1O)c1cc(C2CC2)on1` (stereo not drawn) [compound 37, 5-cyclopropyl-N-(4-hydroxypyrrolidin-3-yl)isoxazole-3-carboxamide] was tested, and the IC50 was 36.1 µM. `CC(C)N1C[C@@H](C)[C@H](NC(=O)c2cc(C3CC3)on2)C1` [compound 41, 5-cyclopropyl-N-((3S,4R)-1-isopropyl-4-methylpyrrolidin-3-yl)isoxazole-3-carboxamide] was tested, and the IC50 was 18.2 µM. `CC(C)N1C[C@H](NC(=O)c2cc(C3CC3)on2)[C@@H](C)C1` [compound 42, 5-cyclopropyl-N-((3R,4S)-1-isopropyl-4-methyl-pyrrolidin-3-yl)isoxazole-3-carboxamide] showed an IC50 of 1.9 µM.
